One test deals with T1, Maxi-K channel (Bos taurus, UniProt Q28204).
T1 construct: from tissue; host or cells: bovine aortic smooth muscle sarcolemmal membranes
Description: [125I]ChTX binding to bovine aortic smooth muscle sarcolemmal membranes. The following applies: concentrations up to 10 nM. The procedure:
The potency of MgTX as an inhibitor of [^125 I]ChTX binding to Kv 1.3 was evaluated. The binding of [^125 I]ChTX to either rat brain synaptic plasma membrane vesicles (Kv 1.3 channel; Vazquez et al., J. Biol. Chem. 265, 15564, 1990) or bovine aortic smooth muscle sarcolemmal membranes (Maxi-K channel; Vazquez et al., J. Biol. Chem. 264, 20402, 1989) was determined as described. Briefly, membrane vesicles were incubated with [^125 I]ChTX in the presence or absence of other added agents, until equilibrium was achieved. Separation of bound from free ligand was accomplished by filtration through GF/C glass fiber filters (WHATMAN) that had been presoaked in 0.5% polyethyleneimine. Nonspecific binding was determined in the presence of 10 nM unlabeled ChTX. Data from saturation experiments were analyzed in a Scatchard representation to determine Kd and Bmax values. Triplicate samples were obtained for each experimental point and the data were averaged. The standard deviation of the mean was typically less than 2%. […] As an indication of selectivity, MgTX had no effect on [^125 I]ChTX binding to the Maxi-K channel in smooth muscle membranes at concentrations up to 10 nM.

For test [1], the system named is Kv 3 (rat Kv 1.3; human Kv 1.3). Description: Two-electrode voltage clamp of Xenopus oocytes expressing Kv 3 (Kv 1.3). The following applies: read-out: IC50 on cloned channel Kv 3. The class given is cell-based, rat and human. Here is the method:
Ionic currents were also recorded from Xenopus oocytes that had been injected with RNA transcribed in vitro from one or another of the following K^+ channel cDNA clones. Kv 1 (rat Kv 1.5), rat or human Kv 3 (rat Kv 1.3; human Kv 1.3), Kv 4 (rat Kv 3.1 ), rat ISK, Kv 2 (rat Kv 1.6) or Drosophila Shaker-H4. The names of the clones are listed as originally published, with the appropriate parenthetical designation according to the unified gene nomenclature proposed by Chandy. Shaker-H4 is a splice variant from the original Drosophila Shaker K^+ channel gene. Kv 1.3 is the ChTX-sensitive delayed rectifier current found in rat and human T lymphocytes (data from rat and human clones were indistinguishable and were combined) and it is a member of the Shaker family. Kv 1.5 is a channel cloned from rat (Swanson et al., Neuron, 4, 929, 1990) and is another member of the Shaker family. The Kv 1.5 transcript has been detected in pancreatic β cells as described in Philipson, et al., Proc. Natl. Acad. Sci. U.S.A. 88, 53, 1991. […] The ISK transcript has been detected in lymphocytes (Attali et al., J. Biol. Chem,. 267, 8650, 1992), but no evidence of the IKs current has been found in those cells.
Methods for oocyte isolation and micro-injection were previously described in Goldin, Meth. […] Currents expressed in oocytes were measured using a DAGAN model CA-1 two-electrode voltage clamp. […]
(In general: Two-electrode voltage clamp holds a large cell at a set potential and records current.)

Test [2] concerns the target T2, Kv 1.3 of human T lymphocytes (Homo sapiens, UniProt P22001).
T2 construct: endogenous in cells; host or cells: purified human peripheral blood T lymphocytes
Description: [125I]ChTX binding to human T cells. Here is the method: In addition to being tested for competition for [^125 I]ChTX binding to rat brain and bovine aortic smooth muscle, MgTX was evaluated for its effects on [^125 I]ChTX binding to human T lymphocytes and to plasma membranes prepared from Jurkat cells, a human T-cell leukemia line. MgTX competition for [^125 I]ChTX binding to human T cells was performed as described by Lin, et al., J. Exp. Med. 177, 637-645, 1993. Binding experiments using monocyte-depleted, E-rosetted human T cells were carried out in isotonic sucrose with 5 mM KCl, 5 mM NaCl, 6 mM glucose and 10 mM HEPES, pH 8.0 until equilibrium was achieved. The procedure for binding to plasma membranes from Jurkat Cells is similar except that the binding solution was 3 mM KCl, 7 mM NaCl, 10 mM HEPES, pH 8.0. Free ligand was removed from bound by filtration through Whatman GF/C glass fiber filters (pretreated with 0.5% polyethylenimine). […] Hill coefficients were 2 in both cases.

Peptide text beside a SMILES is read from it.

T2 sequence (P22001 whole entry): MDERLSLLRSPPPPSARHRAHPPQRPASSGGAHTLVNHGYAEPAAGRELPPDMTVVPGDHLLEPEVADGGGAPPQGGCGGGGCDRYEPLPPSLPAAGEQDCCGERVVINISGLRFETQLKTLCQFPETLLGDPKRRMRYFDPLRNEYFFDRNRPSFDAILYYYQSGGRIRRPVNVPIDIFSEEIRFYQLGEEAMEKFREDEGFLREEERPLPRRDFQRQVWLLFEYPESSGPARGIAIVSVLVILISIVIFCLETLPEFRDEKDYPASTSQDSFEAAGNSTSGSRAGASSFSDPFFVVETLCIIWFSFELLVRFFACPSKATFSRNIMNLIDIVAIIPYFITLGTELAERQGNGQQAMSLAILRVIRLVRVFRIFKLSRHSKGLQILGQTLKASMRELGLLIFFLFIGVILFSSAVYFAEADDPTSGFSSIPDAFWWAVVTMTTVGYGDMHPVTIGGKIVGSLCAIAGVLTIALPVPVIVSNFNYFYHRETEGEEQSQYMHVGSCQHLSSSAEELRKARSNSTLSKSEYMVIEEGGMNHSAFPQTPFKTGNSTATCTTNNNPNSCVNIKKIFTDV
T1 sequence (Q28204 whole entry): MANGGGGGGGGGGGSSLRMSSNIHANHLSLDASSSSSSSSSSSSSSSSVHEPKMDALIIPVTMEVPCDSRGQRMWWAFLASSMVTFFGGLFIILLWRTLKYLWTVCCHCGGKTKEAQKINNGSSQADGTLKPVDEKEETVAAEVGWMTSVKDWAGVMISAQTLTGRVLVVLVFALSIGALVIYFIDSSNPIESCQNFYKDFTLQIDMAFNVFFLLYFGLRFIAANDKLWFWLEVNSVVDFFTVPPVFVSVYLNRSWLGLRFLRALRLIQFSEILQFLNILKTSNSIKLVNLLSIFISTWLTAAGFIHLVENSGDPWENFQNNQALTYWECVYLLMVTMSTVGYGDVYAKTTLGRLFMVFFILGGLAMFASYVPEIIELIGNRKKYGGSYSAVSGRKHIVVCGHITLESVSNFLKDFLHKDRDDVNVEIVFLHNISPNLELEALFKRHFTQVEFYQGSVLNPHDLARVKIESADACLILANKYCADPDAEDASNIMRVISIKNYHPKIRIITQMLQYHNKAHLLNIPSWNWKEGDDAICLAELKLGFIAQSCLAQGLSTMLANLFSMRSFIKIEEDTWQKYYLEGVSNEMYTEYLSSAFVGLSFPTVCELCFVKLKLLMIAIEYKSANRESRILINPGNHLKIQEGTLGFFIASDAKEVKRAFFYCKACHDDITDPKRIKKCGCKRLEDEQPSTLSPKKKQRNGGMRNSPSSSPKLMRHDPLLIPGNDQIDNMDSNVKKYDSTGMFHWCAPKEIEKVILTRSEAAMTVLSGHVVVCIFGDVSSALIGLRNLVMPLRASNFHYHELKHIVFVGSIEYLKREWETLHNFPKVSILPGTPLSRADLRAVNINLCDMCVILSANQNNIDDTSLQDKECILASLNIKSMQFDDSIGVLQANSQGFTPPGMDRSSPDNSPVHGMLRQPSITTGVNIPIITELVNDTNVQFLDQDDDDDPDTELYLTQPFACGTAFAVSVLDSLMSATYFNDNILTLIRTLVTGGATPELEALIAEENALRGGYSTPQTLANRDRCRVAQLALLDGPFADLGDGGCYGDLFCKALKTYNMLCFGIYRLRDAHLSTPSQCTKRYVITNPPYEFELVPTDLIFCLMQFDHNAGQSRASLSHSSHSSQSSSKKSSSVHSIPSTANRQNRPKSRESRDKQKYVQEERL
T1 sequence (Q28067 whole entry partner): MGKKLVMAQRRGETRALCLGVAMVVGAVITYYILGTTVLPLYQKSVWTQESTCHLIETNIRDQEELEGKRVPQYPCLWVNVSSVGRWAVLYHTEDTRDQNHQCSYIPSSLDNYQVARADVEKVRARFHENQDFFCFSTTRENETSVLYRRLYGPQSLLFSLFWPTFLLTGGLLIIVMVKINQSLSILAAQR

Turning to `CC[C@H](C)[C@H](NC(=O)[C@@H](N)[C@@H](C)O)C(=O)N[C@H](C(=O)N[C@@H](CC(N)=O)C(=O)N[C@H](C(=O)N[C@@H](CCCCN)C(=O)N[C@H]1CSSC[C@@H]2NC(=O)[C@H](CCCCN)NC(=O)[C@H](C)NC(=O)CNC(=O)[C@H](C)NC(=O)[C@H](CO)NC(=O)[C@H](CCC(N)=O)NC(=O)CNC(=O)[C@H](Cc3ccccc3)NC(=O)[C@H](CCC(N)=O)NC(=O)[C@H](C)NC(=O)[C@H](CCCCN)NC(=O)[C@@H]3CSSC[C@@H](C(=O)N[C@@H](Cc4ccc(O)cc4)C(=O)N4CCC[C@H]4C(=O)N[C@@H](Cc4c[nH]cn4)C(=O)O)NC(=O)[C@H](CCCCN)NC(=O)[C@H](CSSC[C@H](NC(=O)[C@H](CCC(N)=O)NC(=O)[C@H](CCCCN)NC(=O)[C@@H]4CCCN4C(=O)[C@H](CO)NC(=O)[C@H]([C@@H](C)O)NC1=O)C(=O)N[C@@H](CC(C)C)C(=O)N1CCC[C@H]1C(=O)N1CCC[C@H]1C(=O)N3)NC(=O)[C@H](CCCCN)NC(=O)CNC(=O)[C@H](CC(N)=O)NC(=O)[C@H](CCSC)NC2=O)C(C)C)[C@@H](C)CC` [MgTX, Margatoxin] (HELM PEPTIDE1{T.I.I.N.V.K.C.T.S.P.K.Q.C.L.P.P.C.K.A.Q.F.G.Q.S.A.G.A.K.C.M.N.G.K.C.K.C.Y.P.H}$PEPTIDE1,PEPTIDE1,7:R3-29:R3|PEPTIDE1,PEPTIDE1,13:R3-34:R3|PEPTIDE1,PEPTIDE1,17:R3-36:R3$$$V2.0; N-terminus and C-terminus assumed; bridges inferred), the “effect on [125I]ChTX binding to the Maxi-K channel in smooth muscle membranes” value on Maxi-K channel was “no effect”. Besides, the IC50 – broadly, the point on the concentration scale where inhibition reaches its midpoint – was ~0.03 nM in test [1] and 0.0014 nM in test [2] (isotonic sucrose, pH 8.0, read-out: IC50 for inhibition of [125I]ChTX binding). The Hill coefficient – broadly, the slope factor of the fitted curve – in test [2] stood at 2.

Values taken from US5494895A, “Scorpion peptide margatoxin with immunosuppressant activity” (Merck & Co., Inc., priority 1993, dated 1996).
